Measured values from patent publication US20240108753A1, “NUCLEIC ACID DELIVERY” (NUNTIUS THERAPEUTICS LIMITED, priority 2021, published 2024).
Where a SMILES comes first, the peptide text is derived from it. Where no end group is shown, it is not given here.

What was measured:
[1] = test system: clathrin mediated endocytosis, caveolae-mediated endocytosis and micropinocytosis; experiment: Endocytic experiments: transfection in the presence of uptake inhibitors; format: cell-based; conditions: inhibitor added to G1,2,3-RL-D/D-DNA nanoparticle transfection
Protocol: The uptake mechanism of the composition of the invention was investigated. Chlorpromazine was used to inhibit clathrin mediated endocytosis. Genistein and Rottlerin were also used; these agents have been reported to inhibit caveolae-mediated endocytosis and micropinocytosis respectively.
Cells were preincubated with each inhibitor (chlorpromazine, genstein and rottlerin) for 30 min at 37 C.
Subsequently transfection was performed for a further 4 h at 37 C as described in the transfection section, in the presence of the inhibitor.

[2] = Cell viability after transfection (crystal violet); format: cell-based, human; conditions: human, HeLa cells, following transfection with DNA formulations
Protocol: (§1) Cell viability. Cells were transfected as described in ‘Transfection Procedure’. Following 24 hours of transfection, the medium was removed and the cells were washed twice with PBS. Afterwards, the cells were dried for 1 hour at room temperature (to allow permeation of the nuclear stain). Crystal violet solution (50 μL of stock solution supplied by Sigma-Aldrich) was added to the cells. They were incubated for 15 min at room temperature. After washing with distilled water (5 times), the cells were dried for 30 min at room temperature. Then, MeOH (200 μL) was added and the suspension was incubated for 1 hour at room temperature. The relative amount of the crystal violet stain retained by viable cells was determined by the absorbance of the methanolic solution at 550 nm.

HeLa cells = experiment: Cell viability after transfection (crystal violet); format: cell-based, human; conditions: following transfection with DNA formulations
Protocol: as §1

[3] = cited from earlier work
[4] = Hydrodynamic size, polydispersity index and zeta potential of dendrimer, lipid and mRNA complexes; format: physicochemical; conditions: DOTMA/DOPE w/w 10:1 to mRNA; for Hydrodynamic size: dendrimer, lipid and mRNA complexes
Protocol: The hydrodynamic size, polydispersity index and Zeta potential was determined for a set of the dendrimers disclosed in Tables 1 and 2.

mice tissue = experiment: In vivo luciferase DNA expression assays; conditions: intravenous; DOTMA/DOPE w/w=1:1 to DNA; NP 20:1; 24 h
Protocol: Mice were injected with the dendrimers, lipid and DNA formulations, and tissues were isolated and snap-frozen for luciferase expression analysis 24 h and 48 h post intravenous and intramuscular injection respectively.
The tissues were homogenised with 1× reporter lysis buffer supplemented with Protease Inhibitors. Depending on the tissues, 1.5 to 3 times of the lysis buffer was used for the tissue homogenisation. Following the homogenisation, the lysates were centrifuged and the supernatants were used for assaying luciferase expression and protein content. The luciferase expression level was measured with a luminometer using a luciferase assay kit (Promega), following the manufacturer's instructions. The protein content was measured using a Biorad protein assay kit at 595 nm absorbance, following the manufacturer's instructions.
Mice were injected with the dendrimers, lipid and DNA formulation prepared for detection of luciferase expression post injection. Tissues were isolated and snap-frozen for luciferase expression analysis 24 h and 48 h post intravenous and intramuscular injection respectively.

C2C12 cells = experiment: In vitro DNA (luciferase reporter) delivery; format: cell-based; conditions: N:P=8:1, DOTMA/DOPE w/w=1:1 to DNA
Source text: FIG. 25. In vitro DNA delivery to HeLa and C2C12 cells. HeLa cells were transfected with either DNA alone, G1,2,3-RL (N:P=5:1) and DOTMA/DOPE (at a w/w=1:1 to DNA) with DNA and G1,2,3-RL (N:P=5:1) and DOPG/DOPE (at a w/w=1:1 to DNA) with DNA (top panel). C2C12 cells (a muscle-derived cell line) were transfected with either DNA alone, polyethylenimine with DNA, G1,2-RL, 3-LR (N:P=8:1) and DOTMA/DOPE (at a w/w=1:1 to DNA) with DNA and NTX2 (N:P=8:1) and DOTMA/DOPE (at a w/w=1:1 to DNA) with DNA (bottom panel). The DNA used in both experiments encodes a luciferase reporter gene. NTX2 is a G1,2-RL, 3-LR dendrimer conjugated to a muscle targeting peptide ASSLINA ((LR)8(KRL)4(KRL)2KGSCGAASSLNIA(Acp)-NH2).
NTX2 is a G1,2-RL, 3-LR dendrimer conjugated to a muscle targeting peptide ASSLINA ((LR)8(KRL)4(KRL)2KGSCGAASSLNIA(Acp)-NH2).

CN(C)CCCN1c2ccccc2Sc2ccc(Cl)cc21 [Chlorpromazine]
inhibition of transfection [1]: 80%

CC(C)C[C@H](NC(=O)[C@H](CCCCN)NC(=O)[C@H](CCCCNC(=O)[C@H](CC(C)C)NC(=O)[C@H](CCCCN)NC(=O)[C@H](CCCCNC(=O)[C@H](CC(C)C)NC(=O)[C@@H](N)CCCCN)NC(=O)[C@H](CC(C)C)NC(=O)[C@@H](N)CCCCN)NC(=O)[C@H](CC(C)C)NC(=O)[C@H](CCCCN)NC(=O)[C@H](CCCCNC(=O)[C@H](CC(C)C)NC(=O)[C@@H](N)CCCCN)NC(=O)[C@H](CC(C)C)NC(=O)[C@@H](N)CCCCN)C(=O)NCCCC[C@H](NC(=O)[C@H](CC(C)C)NC(=O)[C@H](CCCCN)NC(=O)[C@H](CCCCNC(=O)[C@H](CC(C)C)NC(=O)[C@H](CCCCN)NC(=O)[C@H](CCCCNC(=O)[C@H](CC(C)C)NC(=O)[C@@H](N)CCCCN)NC(=O)[C@H](CC(C)C)NC(=O)[C@@H](N)CCCCN)NC(=O)[C@H](CC(C)C)NC(=O)[C@H](CCCCN)NC(=O)[C@H](CCCCNC(=O)[C@H](CC(C)C)NC(=O)[C@@H](N)CCCCN)NC(=O)[C@H](CC(C)C)NC(=O)[C@@H](N)CCCCN)C(=O)NCC(=O)N[C@@H](CO)C(=O)N[C@@H](CS)C(N)=O [G1,2,3-KL, (KL)8(KKL)4(KKL)2KGSC-NH2] (HELM PEPTIDE1{K.L.K.K.L.K.K.L.K.G.S.C.[am]}|PEPTIDE2{K.L}|PEPTIDE3{K.L.K.K.L.K.K.L}|PEPTIDE4{K.L}|PEPTIDE5{K.L.K.K.L}|PEPTIDE6{K.L}|PEPTIDE7{K.L.K.K.L}|PEPTIDE8{K.L}$PEPTIDE1,PEPTIDE2,3:R3-2:R2|PEPTIDE3,PEPTIDE4,3:R3-2:R2|PEPTIDE5,PEPTIDE6,3:R3-2:R2|PEPTIDE7,PEPTIDE8,3:R3-2:R2|PEPTIDE1,PEPTIDE7,6:R3-5:R2|PEPTIDE1,PEPTIDE3,9:R3-8:R2|PEPTIDE3,PEPTIDE5,6:R3-5:R2$$$V2.0)
viability at 24 h [2]: ≥ 40%

CC(C)C[C@H](NC(=O)[C@@H](N)CCCNC(=N)N)C(=O)NCCCC[C@H](NC(=O)[C@H](CC(C)C)NC(=O)[C@@H](N)CCCNC(=N)N)C(=O)NCC(=O)N[C@@H](CO)C(=O)N[C@@H](CS)C(N)=O [G1-RL, (RL)2KGSC-NH2] (HELM PEPTIDE1{R.L.K.G.S.C.[am]}|PEPTIDE2{R.L}$PEPTIDE1,PEPTIDE2,3:R3-2:R2$$$V2.0)
cell death (HeLa cells): 40%

O=c1c(-c2ccc(O)cc2)coc2cc(O)cc(O)c12 [Genistein]
inhibition of transfection [1]: around 50%

CC(=O)c1c(O)c(C)c(O)c(Cc2c(O)c3c(c(C(=O)/C=C/c4ccccc4)c2O)OC(C)(C)C=C3)c1O [Rottlerin]
inhibition of transfection [1]: around 50%

ClC(Cl)(Cl)Cl [carbon tetrachloride]
AST and ALT threshold levels in disease model of liver damage ([3]; Bonnet et al 2008): greater than 7000 U/L

(LR)8(KLR)4(KLR)2KGSC-NH2 [G1,2,3-LR]
Polydispersity Index (PDI) ([4]; N:P 0.16:1): 0.168 | Zeta Potential ([4]; N:P 0.16:1): 43 mV | Polydispersity Index (PDI) ([4]; N:P 8:1): 0.272 | Zeta Potential ([4]; N:P 8:1): 60 mV | Hydrodynamic size ([4]; N:P 0.16:1): 121 nm | Hydrodynamic size ([4]; N:P 8:1): 83 nm | luciferase expression in tissues, DNA delivery (mice tissue): the most effective delivery to skeletal muscle

(LR)8(KRL)4(KRL)2KGSCGAASSLNIA(Acp)-NH2 [NTX2]
luciferase expression after DNA transfection (C2C12 cells): further increase transfection efficiency

KLKLKGSC-NH2 [G1-KL, (KL)2KGSC-NH2]
cell death (HeLa cells): 40%

Lipopolysaccharides
TNF-alpha level ([3]; in vivo): up to 5000 μg/mL
